Test results taken from patent US20250163038A1, “CBL-B MODULATORS AND USES THEREOF” (Nimbus Clio, Inc., priority 2021, published 2025).

What was measured:
[1] = target: Recombinant human Cbl-b (aa 36-427) (Homo sapiens, UniProt Q13191); experiment: Cbl-b Biochemical Assay (TR-FRET); settings: read-out: TR-FRET hCbl-b IC50
[2] = system: Jurkat (clone E6-1) cells with NFAT luciferase reporter; experiment: Jurkat reporter assay (NFAT Luciferase); assay type: cell-based; settings: Homo sapiens; Jurkat NFAT luciferase reporter cells, anti-CD3 stimulation, 6 hr; read-out: Jurkat NFAT EC50
[3] = target: T1, Recombinant human c-Cbl (aa 47-435) (Homo sapiens, UniProt P22681); experiment: c-Cbl Biochemical Assay (TR-FRET); settings: hc-Cbl Biochemical Assay (TR-FRET); read-out: TR-FRET hcCbl IC50
T1 sequence (P22681 47-435): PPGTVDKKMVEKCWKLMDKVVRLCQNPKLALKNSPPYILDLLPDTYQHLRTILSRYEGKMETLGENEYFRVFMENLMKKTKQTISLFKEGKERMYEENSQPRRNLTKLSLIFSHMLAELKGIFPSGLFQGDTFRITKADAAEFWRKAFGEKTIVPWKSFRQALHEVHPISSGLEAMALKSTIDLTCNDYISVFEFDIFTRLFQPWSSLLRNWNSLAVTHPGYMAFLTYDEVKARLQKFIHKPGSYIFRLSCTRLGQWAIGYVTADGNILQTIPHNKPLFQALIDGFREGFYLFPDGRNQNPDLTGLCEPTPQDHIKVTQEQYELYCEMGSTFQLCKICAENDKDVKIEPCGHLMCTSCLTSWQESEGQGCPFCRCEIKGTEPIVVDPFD

Chain of Recombinant human Cbl-b (aa 36-427) (Q13191 36-427): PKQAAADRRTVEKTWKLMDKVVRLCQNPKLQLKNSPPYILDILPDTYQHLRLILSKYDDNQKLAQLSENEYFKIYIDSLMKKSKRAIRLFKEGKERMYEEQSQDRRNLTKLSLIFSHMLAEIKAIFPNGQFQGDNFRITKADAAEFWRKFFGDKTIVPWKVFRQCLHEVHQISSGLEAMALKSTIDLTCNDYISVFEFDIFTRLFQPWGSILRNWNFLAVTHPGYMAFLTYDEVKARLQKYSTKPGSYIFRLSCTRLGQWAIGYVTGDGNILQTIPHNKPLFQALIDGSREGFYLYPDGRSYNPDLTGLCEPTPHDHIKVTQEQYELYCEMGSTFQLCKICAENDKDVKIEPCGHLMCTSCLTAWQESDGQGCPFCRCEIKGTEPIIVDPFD

| IC50 [1] [nM] | EC50 [2] [nM] | IC50 [3] [nM] | SMILES |
| --- | --- | --- | --- |
| < 200 | < 200 | < 200 | Cn1cnnc1-c1cc(F)ccc1-c1cc(-c2nc3cc(CNCC4(O)CCC4)cc(F)c3o2)nc(C2CC2)c1 [AFI-1, 1-({[(2-{6-Cyclopropyl-4-[4-fluoro-2-(4-methyl-1,2,4-triazol-3-yl)phenyl]pyridin-2-yl}-7-fluoro-1,3-benzoxazol-5-yl)methyl]amino}methyl)cyclobutan-1-ol] |
| < 200 | 1000 to 10000 | 1000 to 10000 | Cn1cnnc1-c1ccccc1-c1cc(-c2nc3cc(CN4CCC5(CC5)C4)cc(C(F)(F)F)c3[nH]2)nc(C2CC2)c1 [AAS-2, 5-((5-Azaspiro[2.4]heptan-5-yl)methyl)-2-(6-cyclopropyl-4-(2-(4-methyl-4H-1,2,4-triazol-3-yl)phenyl)pyridin-2-yl)-7-(trifluoromethyl)-1H-benzo[d]imidazole] |
| < 200 | 200 to 1000 | 1000 to 10000 | Cn1cnnc1-c1cc(F)ccc1-c1cccc(-c2nc3cc(CN[C@@H]4CCC[C@@H]4O)cc(C(F)(F)F)c3o2)c1 [Example T-5, (1S,2R)-2-(((2-(4′-Fluoro-2′-(4-methyl-4H-1,2,4-triazol-3-yl)-[1,1′-biphenyl]-3-yl)-7-(trifluoromethyl)benzo[d]oxazol-5-yl)methyl)amino)cyclopentan-1-ol] |
| < 200 | < 200 | < 200 | Cn1cnnc1-c1cc(F)ccc1-c1cccc(-c2nc3cc(CN[C@@H]4COC[C@@H]4O)cc(C(F)(F)F)c3o2)c1 [DH-2, (3R,4R)-4-(((2-(4′-Fluoro-2′-(4-methyl-4H-1,2,4-triazol-3-yl)-[1,1′-biphenyl]-3-yl)-7-(trifluoromethyl)benzo[d]oxazol-5-yl)methyl)amino)tetrahydrofuran-3-ol] |
| < 200 | < 200 | < 200 | Cn1cnnc1-c1cc(F)ccc1-c1cccc(-c2nc3cc(CNCC4(O)CCC4)cc(F)c3o2)c1 [IZ-1, 1-((((7-Fluoro-2-(4′-fluoro-2′-(4-methyl-4H-1,2,4-triazol-3-yl)-[1,1′-biphenyl]-3-yl)benzo[d]oxazol-5-yl)methyl)amino)methyl)cyclobutan-1-ol] |
| < 200 | < 200 | < 200 | COCCNCc1cc(C(F)(F)F)c2oc(-c3cc(-c4ccc(F)cc4-c4nncn4C)cc(C4CC4)c3)nc2c1 [JT-1, N-((2-(5-Cyclopropyl-4′-fluoro-2′-(4-methyl-4H-1,2,4-triazol-3-yl)-[1,1′-biphenyl]-3-yl)-7-(trifluoromethyl)benzo[d]oxazol-5-yl)methyl)-2-methoxyethan-1-amine] |
| < 200 | 1000 to 10000 | 200 to 1000 | Cn1cnnc1-c1cc(F)ccc1-c1cccc(-c2nc3cc(CN4C(=O)O[C@H]5CCC[C@H]54)cc(C(F)(F)F)c3o2)c1 [CY-1, (3aR,6aS)-3-((2-(4′-Fluoro-2′-(4-methyl-4H-1,2,4-triazol-3-yl)-[1,1′-biphenyl]-3-yl)-7-(trifluoromethyl)benzo[d]oxazol-5-yl)methyl)hexahydro-2H-cyclopenta[d]oxazol-2-one] |
| < 200 | 200 to 1000 | < 200 | Cn1cnnc1-c1cc(F)ccc1-c1cccc(-c2nc3cc(CNCC(O)(C(F)(F)F)C(F)(F)F)cc(C(F)(F)F)c3o2)c1 [CZ-2, 1,1,1,3,3,3-Hexafluoro-2-((((2-(4′-fluoro-2′-(4-methyl-4H-1,2,4-triazol-3-yl)-[1,1′-biphenyl]-3-yl)-7-(trifluoromethyl)benzo[d]oxazol-5-yl)methyl)amino)methyl)propan-2-ol] |
| 200 to 1000 | 1000 to 10000 | 200 to 1000 | COCCNCc1ccc2oc(-c3cccc(-c4ccc(F)cc4-c4nncn4C)c3)nc2c1 [DZ-1, N-((2-(4′-Fluoro-2′-(4-methyl-4H-1,2,4-triazol-3-yl)-[1,1′-biphenyl]-3-yl)benzo[d]oxazol-5-yl)methyl)-2-methoxyethan-1-amine] |
| < 200 | < 200 | < 200 | CC(NCC1(O)CCC1)c1cc(F)c2oc(-c3cc(-c4ccc(F)cc4-c4nncn4C)cc(C4CC4)n3)nc2c1 (stereo in doubt) [AFQ-6, 1-({[(1S)-1-(2-{6-Cyclopropyl-4-[4-fluoro-2-(4-methyl-1,2,4-triazol-3-yl)phenyl]pyridin-2-yl}-7-fluoro-1,3-benzoxazol-5-yl)ethyl]amino}methyl)cyclobutan-1-ol] |
| 200 to 1000 | 1000 to 10000 | 1000 to 10000 | Cc1cc(CO)cc2nc(-c3cc(-c4ccc(F)cc4-c4nncn4C)cc(C4CC4)n3)oc12 [AET-1, (2-{6-Cyclopropyl-4-[4-fluoro-2-(4-methyl-1,2,4-triazol-3-yl)phenyl]pyridin-2-yl}-7-methyl-1,3-benzoxazol-5-yl)methanol] |
| < 200 | 200 to 1000 | 1000 to 10000 | COC(C)(C)CNCc1cc(C(F)(F)F)c2oc(-c3cccc(-c4ccc(F)cc4-c4nncn4C)c3)nc2c1 [AI-2, N-((2-(4′-Fluoro-2′-(4-methyl-4H-1,2,4-triazol-3-yl)-[1,1′-biphenyl]-3-yl)-7-(trifluoromethyl)benzo[d]oxazol-5-yl)methyl)-2-methoxy-2-methylpropan-1-amine] |
| 200 to 1000 | 1000 to 10000 | 10000 to 50000 | C[C@H](Cc1nncn1C)c1cccc(-c2nc3ccc(Br)c(C(F)(F)F)c3[nH]2)c1 [AV-9, (R)-6-Bromo-2-(3-(1-(4-methyl-4H-1,2,4-triazol-3-yl)propan-2-yl)phenyl)-7-(trifluoromethyl)-1H-benzo[d]imidazole] |
| < 200 | < 200 | < 200 | Cn1cnnc1-c1cc(F)ccc1-c1cccc(-c2nc3cc(CNCC4(O)CC(F)(F)C4)cc(C(F)(F)F)c3[nH]2)c1 [CK-2, 3,3-Difluoro-1-((((2-(4′-fluoro-2′-(4-methyl-4H-1,2,4-triazol-3-yl)-[1,1′-biphenyl]-3-yl)-7-(trifluoromethyl)-1H-benzo[d]imidazol-5-yl)methyl)amino)methyl)cyclobutan-1-ol] |
| < 200 | < 200 | < 200 | Cn1cnnc1-c1cc(F)ccc1-c1cccc(-c2nc3cc(CN[C@@H]4CCC[C@@H]4O)cc(C(C)(C)C)c3o2)c1 [EV-9, (1S,2R)-2-(((7-(tert-Butyl)-2-(4′-fluoro-2′-(4-methyl-4H-1,2,4-triazol-3-yl)-[1,1′-biphenyl]-3-yl)benzo[d]oxazol-5-yl)methyl)amino)cyclopentan-1-ol] |
| < 200 | < 200 | < 200 | Cn1cnnc1-c1cc(F)ccc1-c1cccc(-c2nc3cc(CNCC4CCC4)c(F)c(F)c3o2)c1 [IX-1, 1-Cyclobutyl-N-((6,7-difluoro-2-(4′-fluoro-2′-(4-methyl-4H-1,2,4-triazol-3-yl)-[1,1′-biphenyl]-3-yl)benzo[d]oxazol-5-yl)methyl)methanamine] |
| < 200 | 200 to 1000 | 200 to 1000 | COCCNCc1cc(C(F)(F)F)c2oc(-c3cccc([C@]4(c5nncn5C)C[C@@H](C)C4)c3)nc2c1 [ADN-1, (2-Methoxyethyl)[(2-{3-[(1r,3s)-3-methyl-1-(4-methyl-1,2,4-triazol-3-yl)cyclobutyl]phenyl}-7-(trifluoromethyl)-1,3-benzoxazol-5-yl)methyl]amine] |
| 200 to 1000 | 1000 to 10000 | 10000 to 50000 | Cn1cnnc1-c1ccccc1-c1cccc(-c2nc3cc(CN4CCC5(CC5)C4)cc(C(F)(F)F)c3[nH]2)c1 [ACF-1, 5-((5-Azaspiro[2.4]heptan-5-yl)methyl)-2-(2′-(4-methyl-4H-1,2,4-triazol-3-yl)-[1,1′-biphenyl]-3-yl)-7-(trifluoromethyl)-1H-benzo[d]imidazole] |
| < 200 | < 200 | < 200 | Cn1cnnc1-c1cc(F)ccc1-c1cccc(-c2nc3cc(CN[C@@H]4CCC[C@@H]4O)ccc3o2)c1 [CM-1, (1S,2R)-2-(((2-(4′-Fluoro-2′-(4-methyl-4H-1,2,4-triazol-3-yl)-[1,1′-biphenyl]-3-yl)benzo[d]oxazol-5-yl)methyl)amino)cyclopentan-1-ol] |
| 1000 to 10000 | 10000 to 50000 | 1000 to 10000 | Cc1cc(CO)cc2nc(-c3cccc(-c4ccc(F)cc4-c4nncn4C)c3)oc12 [FE-3, (2-(4′-Fluoro-2′-(4-methyl-4H-1,2,4-triazol-3-yl)-[1,1′-biphenyl]-3-yl)-7-methylbenzo[d]oxazol-5-yl)methanol] |
| < 200 | < 200 | < 200 | Cc1c(F)c(CN[C@@H]2CCC[C@@H]2O)cc2nc(-c3cc(-c4ccc(F)cc4-c4nncn4C)cc(C4CC4)n3)oc12 [AGQ-2, (1S,2R)-2-{[(2-{6-Cyclopropyl-4-[4-fluoro-2-(4-methyl-1,2,4-triazol-3-yl)phenyl]pyridin-2-yl}-6-fluoro-7-methyl-1,3-benzoxazol-5-yl)methyl]amino}cyclopentan-1-ol] |
| < 200 | 1000 to 10000 | 1000 to 10000 | Cn1cnnc1-c1cc(F)ccc1-c1cccc(-c2nc3cc(CO)cc(C(F)(F)F)c3o2)c1 [Example X-2, (2-(4′-Fluoro-2′-(4-methyl-4H-1,2,4-triazol-3-yl)-[1,1′-biphenyl]-3-yl)-7-(trifluoromethyl)benzo[d]oxazol-5-yl)methanol] |
